Measured values as given in the supplement of paper PMC10307832.

Assays:
Experiment in all cases: relative viability (nuclei count vs DMSO), 5 days (fraction); higher = more cells survive
[1] = tested on: NCI-H2126
Outline: (§1)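 A single step with final 0.05% Triton X-100, 1% formaldehyde and 1 ug/ml Hoechst fixed the cells and stained nuclei 5 days after treatment. Lung cancer cell lines in 1536-well plates had been treated by pin tool the day after seeding with one drug alone or a fixed anchor-drug dose plus five library-drug doses (not always all listed) in √10 steps, and nuclei were counted on 4× images. Relative viability is the ratio of nuclei in treated wells to nuclei in vehicle wells, taken as the median of duplicate plates.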

[2] = tested on: NCI-H2347
Outline: as §1

[3] = tested on: NCI-H23
Outline: as §1

[4] = tested on: NCI-H3122
Outline: as §1

[5] = tested on: NCI-H441
Outline: as §1

[6] = tested on: NCI-H596
Outline: as §1

[7] = tested on: NCI-H647
Outline: as §1

[8] = tested on: NCI-H650
Outline: as §1

[9] = tested on: NCI-H727
Outline: as §1

[10] = tested on: NCI-H838
Outline: as §1

In the case of `O=c1cc(-c2cccc3c2Sc2ccccc2S3)oc(N2CCOCC2)c1` + COc1cc2c(Oc3ccc(NC(=O)C4(C(=O)Nc5ccc(F)cc5)CC4)cc3F)ccnc2cc1OCCCN1CCOCC1 [Foretinib] (partner 0.25 µM), the relative viability ([1]; first compound 0.08 µM) is reported as 1.22, the relative viability ([1]; first compound 0.253 µM) is reported as 1.39 and the relative viability ([1]; first compound 0.8 µM) is reported as 1.02. It also gave a relative viability ([1]; first compound 2.53 µM) of 1.03, a relative viability ([1]; first compound 8 µM) of 0.994 and a relative viability ([2]; first compound 0.08 µM) of 0.903. The relative viability ([2]; first compound 0.253 µM) was 0.841, the relative viability ([2]; first compound 0.8 µM) was 0.682 and the relative viability ([2]; first compound 2.53 µM) was 0.679. It also gave a relative viability ([2]; first compound 8 µM) of 0.892, a relative viability ([3]; first compound 0.08 µM) of 0.96 and a relative viability ([3]; first compound 0.253 µM) of 1.14. It also gave a relative viability ([3]; first compound 0.8 µM) of 0.906, a relative viability ([3]; first compound 2.53 µM) of 0.886 and a relative viability ([3]; first compound 8 µM) of 0.898. The relative viability ([4]; first compound 0.08 µM) was 0.789, the relative viability ([4]; first compound 0.253 µM) was 1.01 and the relative viability ([4]; first compound 0.8 µM) was 1.02. It also gave a relative viability ([4]; first compound 2.53 µM) of 0.986, a relative viability ([4]; first compound 8 µM) of 1.01 and a relative viability ([5]; first compound 0.08 µM) of 0.512. For the same compound, the relative viability ([5]; first compound 0.253 µM) was 1.09, the relative viability ([5]; first compound 0.8 µM) was 1.35 and the relative viability ([5]; first compound 2.53 µM) was 0.882. The relative viability ([5]; first compound 8 µM) was 0.98, the relative viability ([6]; first compound 0.08 µM) was 0.783 and the relative viability ([6]; first compound 0.253 µM) was 0.907. The relative viability ([6]; first compound 0.8 µM) was 0.969, the relative viability ([6]; first compound 2.53 µM) was 0.789 and the relative viability ([6]; first compound 8 µM) was 0.848. It also gave a relative viability ([7]; first compound 0.08 µM) of 1.15, a relative viability ([7]; first compound 0.253 µM) of 1.35 and a relative viability ([7]; first compound 0.8 µM) of 1.25. The relative viability ([7]; first compound 2.53 µM) was 1.21, the relative viability ([7]; first compound 8 µM) was 1.29 and the relative viability ([8]; first compound 0.08 µM) was 0.998. It also gave a relative viability ([8]; first compound 0.253 µM) of 1.09, a relative viability ([8]; first compound 0.8 µM) of 1.04 and a relative viability ([8]; first compound 8 µM) of 1.01. The relative viability ([9]; first compound 0.08 µM) was 0.552, the relative viability ([9]; first compound 0.253 µM) was 0.867 and the relative viability ([9]; first compound 0.8 µM) was 0.904. It also gave a relative viability ([9]; first compound 2.53 µM) of 0.842, a relative viability ([9]; first compound 8 µM) of 1.21 and a relative viability ([10]; first compound 0.08 µM) of 0.995. It also gave a relative viability ([10]; first compound 0.253 µM) of 1.25, a relative viability ([10]; first compound 0.8 µM) of 0.88 and a relative viability ([10]; first compound 2.53 µM) of 0.878. The relative viability ([10]; first compound 8 µM) was 0.972.
